Counter-ions that a name gives are not always drawn.
Key:
obese, stressed patients [1] = experiment: CES-D test of current levels of emotional distress in patients; format: in vivo, human; settings: for CES-D Mood Score: over the treatment period
From the text: (§1) A subgroup of obese individuals is identified, which individuals describe themselves as being unable to control their eating and who attempt to continue on a weight-reducing diet when experiencing emotional distress. […]
(§2) Objective measurements of emotional distress are made in some patients using the CES-D (Center for […] Depression Form) test, which measures current levels of emotional distress (Radloff, et al., The CES-D Scale: A Self Report Depression Scale for Research in the General Population Applied Psychological Measurement 1: 385-401, 1977); and the POMS (Profile of Mood States test, that assesses tension, depression, anger and confusion (McNair, et al., Profile of Mood States Manual;San Diego: Educational and Industrial Testing Service, 1971); both of these references are hereby incorporated by reference in their entirety. These tests are also given monthly during the treatment period. At the same time, patients also complete questionnaires that ask the patients to rate their appetite and hunger, and also to rate their tendency to eat in response to a variety of emotional and stressful triggers. The patients are also weighed monthly.

obese, stressed patients [2] = experiment: questionnaire rating appetite and hunger; format: in vivo, human; parameters: Appetite and Cravings: scale not given here
From the text: as §1, §2

obese, stressed patients [3] = experiment: questionnaire rating tendency to eat in response to emotional and stressful triggers; format: in vivo, human; parameters: Emotional Triggers: scale not given here; settings: for emotional triggers score: over the treatment period
From the text: as §1, §2

rats = settings: Rowland et al.; cited from earlier work
[4] = system: patient experiencing stress induced symptoms; experiment: treatment of patients with stress induced symptoms with serotonin precursors (Examples 16-23); format: in vivo, human
[5] = body weight in four month weight loss program; format: in vivo, human
From the text: as §1, §2

[6] = Example 19, food based preparation, in conjunction with a serotonin agonist
[7] = Example 23, food based preparation
[8] = Example 20, in conjunction with a stimulant of serotonin synthesis
[9] = Example 22, functional food, in conjunction with a stimulant of serotonin synthesis
[10] = patient seven, 45 then 60 mg/day, Month 1, baseline 20
[11] = patient seven, 45 then 60 mg/day, Month 2, baseline 20
[12] = patient seven, 45 then 60 mg/day, Month 3, baseline 20
[13] = patient seven, 45 then 60 mg/day, Month 4, baseline 20

CCNC(C)Cc1cccc(C(F)(F)F)c1 (racemic) [D,L-fenfluramine, N-ethyl-α-methyl-3-(trifluoro-methyl)benzeneethanamine]
Mood Scores CES-D (obese, stressed patients [1]; patient six, 30 mg/day, Month 1, baseline 5): 1
Mood Scores CES-D (obese, stressed patients [1]; patient six, 30 mg/day, Month 2, baseline 5): 3
Mood Scores CES-D (obese, stressed patients [1]; patient six, 30 mg/day, Month 3, baseline 5): 2
Mood Scores CES-D (obese, stressed patients [1]; patient six, 30 mg/day, Month 4, baseline 5): 1
Appetite and Cravings (obese, stressed patients [2]; patient six, 30 mg/day, Month 1, baseline 10): 2
Appetite and Cravings (obese, stressed patients [2]; patient six, 30 mg/day, Month 2, baseline 10): 5
Appetite and Cravings (obese, stressed patients [2]; patient six, 30 mg/day, Month 3, baseline 10): 5
Appetite and Cravings (obese, stressed patients [2]; patient six, 30 mg/day, Month 4, baseline 10): 4
Emotional Triggers (obese, stressed patients [3]; patient six, 30 mg/day, Month 1, baseline 23): 2
Emotional Triggers (obese, stressed patients [3]; patient six, 30 mg/day, Month 2, baseline 23): 3
Emotional Triggers (obese, stressed patients [3]; patient six, 30 mg/day, Month 3, baseline 23): 2
Emotional Triggers (obese, stressed patients [3]; patient six, 30 mg/day, Month 4, baseline 23): 4
tail pressure/tail pinch-induced eating (rats): inhibits tail pressure-induced eating

N[C@@H](Cc1c[nH]c2ccc(O)cc12)C(=O)O [L-5-hydroxytryptophan]
CES-D Mood Score (obese, stressed patients [1]; [6]): drops
CES-D Mood Score (obese, stressed patients [1]; [7]): drops
emotional triggers score (obese, stressed patients [3]; [6]): drops
emotional triggers score (obese, stressed patients [3]; [7]): drops
stress induced depression [4, 6]: reduced depression
stress [4, 8]: decreased stress
stress induced high blood pressure [4, 8]: lower blood pressure
stress induced inability to concentrate [4, 7]: improved concentration

N[C@@H](Cc1c[nH]c2ccccc12)C(=O)O [L-tryptophan]
stress induced fatigue ([4]; Example 18, functional food, in conjunction with a stimulant of serotonin synthesis): reduced fatigue
stress as indicated by CES-D Mood Score and emotional triggers score [4, 9]: reduced stress
stress induced neck and back pain [4, 9]: reduced back and neck pain

CNCCC(Oc1ccc(C(F)(F)F)cc1)c1ccccc1 (stereo not shown) [fluoxetine hydrochloride]
Mood Scores CES-D (obese, stressed patients [1]; patient four, 20 rising to 80 mg/day, Month 1, baseline 15): 10
Mood Scores CES-D (obese, stressed patients [1]; patient four, 20 rising to 80 mg/day, Month 2, baseline 15): 2
Mood Scores CES-D (obese, stressed patients [1]; patient four, 20 rising to 80 mg/day, Month 3, baseline 15): 6
Mood Scores CES-D (obese, stressed patients [1]; patient four, 20 rising to 80 mg/day, Month 4, baseline 15): 7
Appetite and Cravings (obese, stressed patients [2]; patient four, 20 rising to 80 mg/day, Month 1, baseline 17): 6
Appetite and Cravings (obese, stressed patients [2]; patient four, 20 rising to 80 mg/day, Month 2, baseline 17): 9
Appetite and Cravings (obese, stressed patients [2]; patient four, 20 rising to 80 mg/day, Month 3, baseline 17): 3
Appetite and Cravings (obese, stressed patients [2]; patient four, 20 rising to 80 mg/day, Month 4, baseline 17): 4
Emotional Triggers (obese, stressed patients [3]; patient four, 20 rising to 80 mg/day, Month 1, baseline 31): 22
Emotional Triggers (obese, stressed patients [3]; patient four, 20 rising to 80 mg/day, Month 2, baseline 31): 13
Emotional Triggers (obese, stressed patients [3]; patient four, 20 rising to 80 mg/day, Month 3, baseline 31): 10
Emotional Triggers (obese, stressed patients [3]; patient four, 20 rising to 80 mg/day, Month 4, baseline 31): 12
weight at the end of 4 months ([5]; patient four, 20 rising to 80 mg/day, starting weight 83.2 kg): 78.2 kg
weight at the end of 4 months ([5]; patient four, 20 rising to 80 mg/day, starting weight 183 pounds): 172 pounds

CN(C)CCCN1c2ccccc2CCc2ccccc21 [imipramine hydrochloride]
Mood Scores CES-D (obese, stressed patients [1]; patient five, intramuscular 75 mg/day, Month 1, baseline 36): 34
Mood Scores CES-D (obese, stressed patients [1]; patient five, intramuscular 75 mg/day, Month 2, baseline 36): 26
Mood Scores CES-D (obese, stressed patients [1]; patient five, intramuscular 75 mg/day, Month 3, baseline 36): 21
Mood Scores CES-D (obese, stressed patients [1]; patient five, intramuscular 75 mg/day, Month 4, baseline 36): 20
Appetite and Cravings (obese, stressed patients [2]; patient five, intramuscular 75 mg/day, Month 1, baseline 15): 12
Appetite and Cravings (obese, stressed patients [2]; patient five, intramuscular 75 mg/day, Month 2, baseline 15): 7
Appetite and Cravings (obese, stressed patients [2]; patient five, intramuscular 75 mg/day, Month 3, baseline 15): 3
Appetite and Cravings (obese, stressed patients [2]; patient five, intramuscular 75 mg/day, Month 4, baseline 15): 6
Emotional Triggers (obese, stressed patients [3]; patient five, intramuscular 75 mg/day, Month 1, baseline 22): 15
Emotional Triggers (obese, stressed patients [3]; patient five, intramuscular 75 mg/day, Month 2, baseline 22): 14
Emotional Triggers (obese, stressed patients [3]; patient five, intramuscular 75 mg/day, Month 3, baseline 22): 6
Emotional Triggers (obese, stressed patients [3]; patient five, intramuscular 75 mg/day, Month 4, baseline 22): 8
weight after 4 months ([5]; patient five, intramuscular 75 mg/day, starting weight 74.1 kg): 70.4 kg
weight after 4 months ([5]; patient five, intramuscular 75 mg/day, starting weight 163 pounds): 155 pounds

O=C([O-])[O-].[Li+].[Li+] [lithium carbonate]
Mood Scores CES-D (obese, stressed patients [1]; patient one, 900 mg/day, Month 1, baseline 4): 3
Mood Scores CES-D (obese, stressed patients [1]; patient one, 900 mg/day, Month 2, baseline 4): 3
Mood Scores CES-D (obese, stressed patients [1]; patient one, 900 mg/day, Month 3, baseline 4): 2
Mood Scores CES-D (obese, stressed patients [1]; patient one, 900 mg/day, Month 4, baseline 4): 2
Appetite and Cravings (obese, stressed patients [2]; patient one, 900 mg/day, Month 1, baseline 14): 6
Appetite and Cravings (obese, stressed patients [2]; patient one, 900 mg/day, Month 2, baseline 14): 9
Appetite and Cravings (obese, stressed patients [2]; patient one, 900 mg/day, Month 3, baseline 14): 5
Appetite and Cravings (obese, stressed patients [2]; patient one, 900 mg/day, Month 4, baseline 14): 3
Emotional Triggers (obese, stressed patients [3]; patient one, 900 mg/day, Month 1, baseline 15): 16
Emotional Triggers (obese, stressed patients [3]; patient one, 900 mg/day, Month 2, baseline 15): 10
Emotional Triggers (obese, stressed patients [3]; patient one, 900 mg/day, Month 3, baseline 15): 6
Emotional Triggers (obese, stressed patients [3]; patient one, 900 mg/day, Month 4, baseline 15): 7
weight after 4 months ([5]; patient one, 900 mg/day, starting weight 111.8 kg): 102.3 kg
weight after 4 months ([5]; patient one, 900 mg/day, starting weight 246 pounds): 225 pounds

NNCCc1ccccc1 [phenelzine sulfate]
Mood Scores CES-D (obese, stressed patients [1]; [10]): 22
Mood Scores CES-D (obese, stressed patients [1]; [11]): 20
Mood Scores CES-D (obese, stressed patients [1]; [12]): 15
Mood Scores CES-D (obese, stressed patients [1]; [13]): 14
Appetite and Cravings (obese, stressed patients [2]; patient seven, 45 then 60 mg/day, Month 1, baseline 19): 15
Appetite and Cravings (obese, stressed patients [2]; patient seven, 45 then 60 mg/day, Month 2, baseline 19): 8
Appetite and Cravings (obese, stressed patients [2]; patient seven, 45 then 60 mg/day, Month 3, baseline 19): 13
Appetite and Cravings (obese, stressed patients [2]; patient seven, 45 then 60 mg/day, Month 4, baseline 19): 12
Emotional Triggers (obese, stressed patients [3]; [10]): 8
Emotional Triggers (obese, stressed patients [3]; [11]): 13
Emotional Triggers (obese, stressed patients [3]; [12]): 6
Emotional Triggers (obese, stressed patients [3]; [13]): 7
weight at the end of 4 months ([5]; patient seven, 45 then 60 mg/day, starting weight 83.6 kg): 79.1 kg
weight at the end of 4 months ([5]; patient seven, 45 then 60 mg/day, starting weight 184 pounds): 174 pounds

CN[C@H]1CC[C@@H](c2ccc(Cl)c(Cl)c2)c2ccccc21 [sertraline hydrochloride]
Mood Scores CES-D (obese, stressed patients [1]; patient nine, 100 mg/day in divided doses, Month 4, baseline 9): 1
Mood Scores CES-D (obese, stressed patients [1]; patient two, 50 rising to 200 mg/day, Month 1, baseline 20): 16
Mood Scores CES-D (obese, stressed patients [1]; patient two, 50 rising to 200 mg/day, Month 2, baseline 20): 16
Mood Scores CES-D (obese, stressed patients [1]; patient two, 50 rising to 200 mg/day, Month 3, baseline 20): 10
Mood Scores CES-D (obese, stressed patients [1]; patient two, 50 rising to 200 mg/day, Month 4, baseline 20): 12
Appetite and Cravings (obese, stressed patients [2]; patient two, 50 rising to 200 mg/day, Month 1, baseline 15): 12
Appetite and Cravings (obese, stressed patients [2]; patient two, 50 rising to 200 mg/day, Month 2, baseline 15): 5
Appetite and Cravings (obese, stressed patients [2]; patient two, 50 rising to 200 mg/day, Month 3, baseline 15): 3
Appetite and Cravings (obese, stressed patients [2]; patient two, 50 rising to 200 mg/day, Month 4, baseline 15): 1
Emotional Triggers (obese, stressed patients [3]; patient nine, 100 mg/day in divided doses, Month 4, baseline 12): 3
Emotional Triggers (obese, stressed patients [3]; patient two, 50 rising to 200 mg/day, Month 1, baseline 22): 12
Emotional Triggers (obese, stressed patients [3]; patient two, 50 rising to 200 mg/day, Month 2, baseline 22): 13
Emotional Triggers (obese, stressed patients [3]; patient two, 50 rising to 200 mg/day, Month 3, baseline 22): 5
Emotional Triggers (obese, stressed patients [3]; patient two, 50 rising to 200 mg/day, Month 4, baseline 22): 3
weight at the end of 4 months ([5]; patient nine, 100 mg/day in divided doses, starting weight 92.3 kg): 72.7 kg
weight at the end of 4 months ([5]; patient nine, 100 mg/day in divided doses, starting weight 203 pounds): 160 pounds
weight at the end of 4 months ([5]; patient two, 50 rising to 200 mg/day, starting weight 78.6 kg): 72.7 kg
weight at the end of 4 months ([5]; patient two, 50 rising to 200 mg/day, starting weight 173 pounds): 160 pounds

CC(CN(C)C)CN1c2ccccc2CCc2ccccc21 (stereo not shown) [trimipramine maleate]
Mood Scores CES-D (obese, stressed patients [1]; patient eight, 75 then 100 mg/day, Month 1, baseline 25): 22
Mood Scores CES-D (obese, stressed patients [1]; patient eight, 75 then 100 mg/day, Month 2, baseline 25): 20
Mood Scores CES-D (obese, stressed patients [1]; patient eight, 75 then 100 mg/day, Month 3, baseline 25): 15
Mood Scores CES-D (obese, stressed patients [1]; patient eight, 75 then 100 mg/day, Month 4, baseline 25): 13
Appetite and Cravings (obese, stressed patients [2]; patient eight, 75 then 100 mg/day, Month 1, baseline 11): 9
Appetite and Cravings (obese, stressed patients [2]; patient eight, 75 then 100 mg/day, Month 2, baseline 11): 8
Appetite and Cravings (obese, stressed patients [2]; patient eight, 75 then 100 mg/day, Month 3, baseline 11): 13
Appetite and Cravings (obese, stressed patients [2]; patient eight, 75 then 100 mg/day, Month 4, baseline 11): 6
Emotional Triggers (obese, stressed patients [3]; patient eight, 75 then 100 mg/day, Month 1, baseline 14): 8
Emotional Triggers (obese, stressed patients [3]; patient eight, 75 then 100 mg/day, Month 2, baseline 14): 13
Emotional Triggers (obese, stressed patients [3]; patient eight, 75 then 100 mg/day, Month 3, baseline 14): 6
Emotional Triggers (obese, stressed patients [3]; patient eight, 75 then 100 mg/day, Month 4, baseline 14): 3
weight at the end of 4 months ([5]; patient eight, 75 then 100 mg/day, starting weight 81.8 kg): 71.8 kg
weight at the end of 4 months ([5]; patient eight, 75 then 100 mg/day, starting weight 180 pounds): 158 pounds

— patent US6579899B1, “Composition for treatment of stress” (Massachusetts Institute of Technology, priority 1998, dated 2003)
